In US20020115619A1, “Compositions and methods for treatment of cystic fibrosis” (priority 2000, published 2002):

What was measured:
[1] = cited from earlier work
rat αβγENaC = assay: Amiloride-sensitive whole-cell current in Xenopus oocytes injected with αβγENaC cRNAs; assay type: cell-based
Experimental: (§1) Human WT-CFTR, human ΔF508-CFTR, and mouse α−, β−and γ ENaC cRNAs were prepared using a cRNA synthesis kit (m-MESSAGE mMACHINE, Ambion Inc, Austin, Tex.) according to the manufacturer's protocol. cRNA concentrations were determined spectroscopically. Oocytes obtained from adult female Xenopus laevis (NASCO Fort Atkinson, Wis.) were defolliculated and maintained at 18° C. in modified Barth's saline (88 mM NaCl, 1 mM KCl, 2.4 mM NaHCO3, 15 mM Hepes pH 7.6, 0.3 mM Ca(NO3)2, 0.41 mM CaCl2, 0.82 MM MgSO4, 10 μg/ml sodium penicillin, 10 μg/ml streptomycin sulfate, 100 μg/ml gentamicin sulfate). […]
(§2) Whole-cell current measurements were made 24 to 48 hours after injection using the two-electrode voltage clamp method (GeneClamp 500 amplifier-Axon Instruments, Foster City, Calif.). […] The whole-cell currents were measured by voltage clamping the oocytes in 20 mV steps between −140 mV to +60 mV adjusted for baseline transmembrane potential. Whole cell currents (I) were digitized at 200 Hz during the voltage steps, recorded directly onto a hard disk and analyzed using pClamp 8 software (Axon Instruments, Foster City, Calif.). […]
The difference in whole-cell currents measured in the absence and presence of 10 μM amiloride was used to define the amiloride-sensitive Na^+current that was mediated by ENaC. […] Whole-cell currents were measured at −100 mV. […]

G551D = molecular target: T1, G551D (Homo sapiens, UniProt P13569, G551D); conditions: G551D patients; standard deviation 1.2 mV; cited from earlier work
T1 construct: host or cells: nasal epithelium of CF patients carrying G551D (endogenous protein)

ΔF508-CFTR [2] = molecular target: T2, ΔF508-CFTR (Homo sapiens, UniProt P13569, DEL508-508); conditions: cited from earlier work
human WT-CFTR = molecular target: T3, human WT-CFTR (Homo sapiens, UniProt P13569); assay: Two-electrode voltage clamp whole-cell current in Xenopus oocytes injected with WT-CFTR cRNA; assay type: cell-based; conditions: FIG. 9
T3 construct: expressed in transfected cells; host or cells: Xenopus laevis oocytes, cRNA injection (10 ng)
Experimental: as §1, §2
(§3) The difference in whole-cell currents measured in the absence and presence of 10 μM amiloride was used to define the amiloride-sensitive Na^+current that was mediated by ENaC. […]

[3] = 16 milligrams per kilogram per day, oral; cited from earlier work
ΔF508-CFTR [4] = molecular target: T2, ΔF508-CFTR; assay: Two-electrode voltage clamp whole-cell current in Xenopus oocytes injected with ΔF508-CFTR cRNA; assay type: cell-based; parameters: expressed in transfected cells; host or cells: Xenopus laevis oocytes, cRNA injection (10 ng); conditions: −100 mV, FIG. 8
Experimental: as §1, §2, §3

T2 sequence (P13569 with tags, fused parts or gaps DEL508-508): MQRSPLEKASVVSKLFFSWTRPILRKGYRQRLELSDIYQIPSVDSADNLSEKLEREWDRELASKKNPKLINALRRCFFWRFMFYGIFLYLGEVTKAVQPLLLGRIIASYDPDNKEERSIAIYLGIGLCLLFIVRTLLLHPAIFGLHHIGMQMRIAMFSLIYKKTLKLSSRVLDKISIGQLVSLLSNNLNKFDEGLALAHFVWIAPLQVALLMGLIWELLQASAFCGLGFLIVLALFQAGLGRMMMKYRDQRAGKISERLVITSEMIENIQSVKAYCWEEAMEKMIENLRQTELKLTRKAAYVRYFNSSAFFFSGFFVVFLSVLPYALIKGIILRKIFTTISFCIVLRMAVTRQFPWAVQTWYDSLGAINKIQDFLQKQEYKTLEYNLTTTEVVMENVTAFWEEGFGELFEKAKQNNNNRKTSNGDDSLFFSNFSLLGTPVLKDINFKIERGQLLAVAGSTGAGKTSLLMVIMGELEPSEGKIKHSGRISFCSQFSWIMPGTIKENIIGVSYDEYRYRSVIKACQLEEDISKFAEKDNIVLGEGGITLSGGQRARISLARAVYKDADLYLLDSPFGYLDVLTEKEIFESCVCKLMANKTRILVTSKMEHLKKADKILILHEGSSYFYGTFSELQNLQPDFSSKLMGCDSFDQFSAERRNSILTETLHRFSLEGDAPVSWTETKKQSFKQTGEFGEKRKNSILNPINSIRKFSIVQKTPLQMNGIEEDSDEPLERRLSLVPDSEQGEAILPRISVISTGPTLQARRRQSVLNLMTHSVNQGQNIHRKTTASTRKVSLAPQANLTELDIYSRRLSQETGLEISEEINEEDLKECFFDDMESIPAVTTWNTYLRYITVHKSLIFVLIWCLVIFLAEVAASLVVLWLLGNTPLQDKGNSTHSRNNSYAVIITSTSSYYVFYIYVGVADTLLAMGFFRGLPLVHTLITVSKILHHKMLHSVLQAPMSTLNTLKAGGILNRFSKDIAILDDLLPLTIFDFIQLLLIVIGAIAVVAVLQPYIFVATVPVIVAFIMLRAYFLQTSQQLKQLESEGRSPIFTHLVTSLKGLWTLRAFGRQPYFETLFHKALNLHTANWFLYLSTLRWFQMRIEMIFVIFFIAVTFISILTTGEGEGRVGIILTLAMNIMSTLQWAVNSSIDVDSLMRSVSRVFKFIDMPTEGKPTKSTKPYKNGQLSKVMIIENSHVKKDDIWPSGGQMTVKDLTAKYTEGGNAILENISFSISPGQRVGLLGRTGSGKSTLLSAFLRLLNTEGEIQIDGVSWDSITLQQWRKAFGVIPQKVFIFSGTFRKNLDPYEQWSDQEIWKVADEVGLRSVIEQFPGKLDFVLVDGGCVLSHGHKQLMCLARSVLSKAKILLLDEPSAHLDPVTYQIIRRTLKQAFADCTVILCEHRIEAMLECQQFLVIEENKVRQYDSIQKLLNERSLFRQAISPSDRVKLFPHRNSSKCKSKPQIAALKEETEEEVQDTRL
T3 sequence (P13569 whole entry): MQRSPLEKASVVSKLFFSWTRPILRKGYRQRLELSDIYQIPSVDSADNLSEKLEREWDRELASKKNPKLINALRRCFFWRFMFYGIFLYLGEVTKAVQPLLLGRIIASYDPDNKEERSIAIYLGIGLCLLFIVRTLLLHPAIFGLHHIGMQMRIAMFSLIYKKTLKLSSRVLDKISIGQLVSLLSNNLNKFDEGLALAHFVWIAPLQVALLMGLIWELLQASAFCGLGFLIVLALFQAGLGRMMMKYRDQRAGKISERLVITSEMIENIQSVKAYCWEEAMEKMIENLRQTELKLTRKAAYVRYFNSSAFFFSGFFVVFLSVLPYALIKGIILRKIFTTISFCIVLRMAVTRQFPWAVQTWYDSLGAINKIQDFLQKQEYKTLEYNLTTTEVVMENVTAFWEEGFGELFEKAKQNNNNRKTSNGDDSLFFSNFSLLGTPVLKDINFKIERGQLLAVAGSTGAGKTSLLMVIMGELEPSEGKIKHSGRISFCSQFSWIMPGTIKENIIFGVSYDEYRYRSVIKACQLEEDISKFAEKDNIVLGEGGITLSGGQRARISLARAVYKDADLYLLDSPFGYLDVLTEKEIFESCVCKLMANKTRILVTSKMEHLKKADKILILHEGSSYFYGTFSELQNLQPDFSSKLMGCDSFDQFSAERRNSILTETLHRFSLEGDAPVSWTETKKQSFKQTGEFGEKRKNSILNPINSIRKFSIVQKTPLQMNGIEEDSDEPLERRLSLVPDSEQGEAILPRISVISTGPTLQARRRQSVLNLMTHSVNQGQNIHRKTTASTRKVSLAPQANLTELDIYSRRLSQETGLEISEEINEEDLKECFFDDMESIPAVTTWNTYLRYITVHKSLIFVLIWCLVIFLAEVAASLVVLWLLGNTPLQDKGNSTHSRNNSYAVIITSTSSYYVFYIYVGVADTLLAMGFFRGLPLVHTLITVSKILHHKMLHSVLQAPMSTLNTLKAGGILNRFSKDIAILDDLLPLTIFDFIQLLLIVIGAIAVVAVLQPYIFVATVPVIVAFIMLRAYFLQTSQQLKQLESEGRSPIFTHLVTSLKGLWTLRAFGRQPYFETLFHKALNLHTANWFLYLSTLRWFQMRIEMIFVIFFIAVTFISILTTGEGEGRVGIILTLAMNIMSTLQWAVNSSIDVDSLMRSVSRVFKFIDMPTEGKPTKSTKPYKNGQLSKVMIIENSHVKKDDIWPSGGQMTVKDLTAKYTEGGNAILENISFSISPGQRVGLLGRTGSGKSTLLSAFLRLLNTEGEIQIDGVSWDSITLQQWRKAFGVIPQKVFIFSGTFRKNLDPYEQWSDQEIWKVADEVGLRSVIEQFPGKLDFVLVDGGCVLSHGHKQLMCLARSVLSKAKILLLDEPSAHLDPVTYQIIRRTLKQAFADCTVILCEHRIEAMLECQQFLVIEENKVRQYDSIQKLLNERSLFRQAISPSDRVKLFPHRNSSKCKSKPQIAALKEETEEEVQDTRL
T1 sequence (P13569 whole entry G551D): as the sequence (P13569 whole entry) above, with G551D counted along it

O=C(O)CCCc1ccccc1 [4PBA, 4-phenylbutyrate]
commonly reported side effects in chronic therapy ([1]; FDA approved use, urea cycle disorders, 20 grams per day oral): mild stomach upset and an occasional bad taste in the mouth | side effects related to 4PBA therapy during trial ([1]; pilot CF trial, 19 grams per day, one week): no significant side effects

N=C(N)NC(=O)c1nc(Cl)c(N)nc1N [amiloride]
inhibition of whole-cell current by amiloride (rat αβγENaC; 10 μM amiloride, oocytes injected with αβγENaC): A large fraction of the current can be inhibited

O=c1c(-c2ccc(O)cc2)coc2cc(O)cc(O)c12 [genistein]
average repolarization of the NPD during genistein perfusion (G551D): 2.4 mV | effect on amiloride-sensitive current of genistein alone or added before forskolin/IBMX (rat αβγENaC; ENaC alone, unpublished data): decreased | enhancement of cAMP-dependent activation of ΔF508-CFTR (ΔF508-CFTR [2]): ≤ 20 fold | activation of ΔF508-CFTR by the compound itself (ΔF508-CFTR [2]; without cAMP stimulation): does not activate ΔF508-CFTR by itself | WT-CFTR whole-cell current after forskolin/IBMX plus genistein (human WT-CFTR; 10 μM forskolin/100 μM IBMX/50 μM genistein): 2.57±0.45 μA | fold increase of forskolin/IBMX-stimulated WT-CFTR current by addition of genistein (human WT-CFTR; 50 μM genistein, −100 mV): 2 fold | side effects in Phase I clinical trials [3]: no side effects noted | ΔF508-CFTR-mediated whole-cell current after forskolin/IBMX/genistein (ΔF508-CFTR [4]; 10 μM forskolin/100 μM IBMX/50 μM genistein, ΔF508-CFTR alone): 1.82±0.4 μA | fold increase of forskolin/IBMX-stimulated ΔF508-CFTR-mediated current by addition of genistein (ΔF508-CFTR [4]; 50 μM genistein added to 10 μM forskolin/100 μM IBMX): 5 fold
